Source: US20250352512A2, “C4-S[…] DERIVATIVES AND METHODS OF USING” (priority 2022, published 2025)

Biological target: T1, CNR1 (Homo sapiens, UniProt P21554)
Assay: cell-based
Conditions: not given

T1 sequence (P21554 whole entry): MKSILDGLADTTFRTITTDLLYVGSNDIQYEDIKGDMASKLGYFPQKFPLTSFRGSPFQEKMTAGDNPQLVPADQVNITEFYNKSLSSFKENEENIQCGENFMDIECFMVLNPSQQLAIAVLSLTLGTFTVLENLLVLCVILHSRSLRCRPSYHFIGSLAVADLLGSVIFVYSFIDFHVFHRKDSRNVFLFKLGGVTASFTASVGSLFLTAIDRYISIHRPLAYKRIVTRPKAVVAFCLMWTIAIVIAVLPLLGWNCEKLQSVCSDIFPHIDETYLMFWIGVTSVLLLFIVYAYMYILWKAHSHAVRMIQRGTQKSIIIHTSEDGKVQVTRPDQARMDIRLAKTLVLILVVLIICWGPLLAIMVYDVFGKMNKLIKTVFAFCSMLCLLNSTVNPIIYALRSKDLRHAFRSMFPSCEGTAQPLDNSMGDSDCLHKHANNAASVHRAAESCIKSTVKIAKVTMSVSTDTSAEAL

Compound	IC50
CN(C)CCc1c[nH]c2cccc(OC(=O)OCc3ccccc3)c12 [B(II)]	68.6 µM
CC(C)OC(=O)OCOc1cccc2c1c(CCN(C)C)cn2COC(=O)OC(C)C [D(XIII)]	> 100 µM
CN(C)CCc1c[nH]c2cccc(OP(=O)(Oc3ccccc3)Oc3ccccc3)c12 [F(I)]	17.2 µM

Same assay, conditions: CNR1, GPCR, ANT (antagonist); read-out: IC50

Compound	IC50
CN(C)Cc1c[nH]c2cccc(O[Si](C)(C)C(C)(C)C)c12 [A(IV)]	> 100 µM

Biological target: T1, CNR1
Assay: cell-based
Conditions: not given
Remark: another data set of the same source

Compound	EC50
CN(C)CCc1c[nH]c2cccc(OC(=O)OCc3ccccc3)c12 [B(II)]	> 100 µM
CN(C)CCc1c[nH]c2cccc(OP(=O)(Oc3ccccc3)Oc3ccccc3)c12 [F(I)]	> 100 µM

Same assay, conditions: CNR1, GPCR, AGN (agonist); read-out: EC50

Compound	EC50
CN(C)Cc1c[nH]c2cccc(O[Si](C)(C)C(C)(C)C)c12 [A(IV)]	> 100 µM
CC(C)OC(=O)OCOc1cccc2c1c(CCN(C)C)cn2COC(=O)OC(C)C [D(XIII)]	> 100 µM

Biological target: T2, HTR3A (5-HT3A) (Homo sapiens, UniProt P46098)
T2 sequence (P46098 24-478): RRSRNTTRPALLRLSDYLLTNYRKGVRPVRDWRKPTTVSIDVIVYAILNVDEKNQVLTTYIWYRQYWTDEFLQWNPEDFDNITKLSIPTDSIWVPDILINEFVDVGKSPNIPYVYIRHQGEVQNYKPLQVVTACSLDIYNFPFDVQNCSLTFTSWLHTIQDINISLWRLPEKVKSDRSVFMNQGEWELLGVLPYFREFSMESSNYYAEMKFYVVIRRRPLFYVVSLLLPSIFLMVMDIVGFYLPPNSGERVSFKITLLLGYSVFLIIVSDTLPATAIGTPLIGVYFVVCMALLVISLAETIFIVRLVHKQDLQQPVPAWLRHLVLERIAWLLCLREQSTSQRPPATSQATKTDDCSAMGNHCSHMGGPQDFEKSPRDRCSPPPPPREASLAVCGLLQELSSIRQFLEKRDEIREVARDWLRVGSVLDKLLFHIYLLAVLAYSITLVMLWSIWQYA
Assay: cell-based
Conditions: not given

Compound	IC50
CN(C)CCc1c[nH]c2cccc(OC(=O)OCc3ccccc3)c12 [B(II)]	2.34 µM
CN(C)CCc1c[nH]c2cccc(OP(=O)(Oc3ccccc3)Oc3ccccc3)c12 [F(I)]	2.52 µM

Same assay, conditions: HTR3A, ion channel, BL (blocker); read-out: IC50

Compound	IC50
CN(C)Cc1c[nH]c2cccc(O[Si](C)(C)C(C)(C)C)c12 [A(IV)]	0.83 µM
CC(C)OC(=O)OCOc1cccc2c1c(CCN(C)C)cn2COC(=O)OC(C)C [D(XIII)]	16.7 µM

Biological target: T3, AVPR1A (Homo sapiens, UniProt P37288)
Assay: cell-based
Conditions: not given

T3 sequence (P37288 whole entry): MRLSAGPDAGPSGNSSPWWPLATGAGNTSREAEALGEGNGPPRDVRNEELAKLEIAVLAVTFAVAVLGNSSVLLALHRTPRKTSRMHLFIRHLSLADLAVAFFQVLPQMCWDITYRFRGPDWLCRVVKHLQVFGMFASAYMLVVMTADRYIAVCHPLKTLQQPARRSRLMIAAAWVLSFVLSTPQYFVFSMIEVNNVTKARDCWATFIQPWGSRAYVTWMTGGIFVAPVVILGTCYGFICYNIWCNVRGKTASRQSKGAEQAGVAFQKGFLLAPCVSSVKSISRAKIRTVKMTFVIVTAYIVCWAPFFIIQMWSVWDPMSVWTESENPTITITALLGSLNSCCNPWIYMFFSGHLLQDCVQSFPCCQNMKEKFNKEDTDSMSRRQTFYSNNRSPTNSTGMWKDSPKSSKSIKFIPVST

Compound	IC50
CN(C)CCc1c[nH]c2cccc(OC(=O)OCc3ccccc3)c12 [B(II)]	42.6 µM
CN(C)CCc1c[nH]c2cccc(OP(=O)(Oc3ccccc3)Oc3ccccc3)c12 [F(I)]	> 100 µM

Same assay, conditions: AVPR1A, GPCR, ANT (antagonist); read-out: IC50

Compound	IC50
CN(C)Cc1c[nH]c2cccc(O[Si](C)(C)C(C)(C)C)c12 [A(IV)]	42.3 µM
CC(C)OC(=O)OCOc1cccc2c1c(CCN(C)C)cn2COC(=O)OC(C)C [D(XIII)]	> 100 µM

Biological target: DRD2S (Homo sapiens, UniProt P14416)
Assay: cell-based
Conditions: not given

Chain of DRD2S (P14416 1-414 isoform P14416-2): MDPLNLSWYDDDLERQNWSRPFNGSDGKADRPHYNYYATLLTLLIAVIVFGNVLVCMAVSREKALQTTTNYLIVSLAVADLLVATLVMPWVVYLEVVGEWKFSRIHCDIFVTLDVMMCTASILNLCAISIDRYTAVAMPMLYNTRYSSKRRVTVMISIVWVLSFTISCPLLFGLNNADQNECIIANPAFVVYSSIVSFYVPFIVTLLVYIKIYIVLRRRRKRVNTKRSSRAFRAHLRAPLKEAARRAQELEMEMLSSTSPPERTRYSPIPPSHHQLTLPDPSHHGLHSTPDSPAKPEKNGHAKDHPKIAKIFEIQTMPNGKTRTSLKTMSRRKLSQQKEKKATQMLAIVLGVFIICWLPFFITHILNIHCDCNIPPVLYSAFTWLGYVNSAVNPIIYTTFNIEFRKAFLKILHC

Compound	EC50
CN(C)CCc1c[nH]c2cccc(OC(=O)OCc3ccccc3)c12 [B(II)]	> 100 µM
CN(C)CCc1c[nH]c2cccc(OP(=O)(Oc3ccccc3)Oc3ccccc3)c12 [F(I)]	3.06 µM

Same assay, conditions: DRD2S, GPCR, AGN (agonist); read-out: EC50

Compound	EC50
CN(C)Cc1c[nH]c2cccc(O[Si](C)(C)C(C)(C)C)c12 [A(IV)]	12.7 µM
CC(C)OC(=O)OCOc1cccc2c1c(CCN(C)C)cn2COC(=O)OC(C)C [D(XIII)]	77 µM

Biological target: T4, CHRM1 (Homo sapiens, UniProt P11229)
T4 sequence (P11229 1-460): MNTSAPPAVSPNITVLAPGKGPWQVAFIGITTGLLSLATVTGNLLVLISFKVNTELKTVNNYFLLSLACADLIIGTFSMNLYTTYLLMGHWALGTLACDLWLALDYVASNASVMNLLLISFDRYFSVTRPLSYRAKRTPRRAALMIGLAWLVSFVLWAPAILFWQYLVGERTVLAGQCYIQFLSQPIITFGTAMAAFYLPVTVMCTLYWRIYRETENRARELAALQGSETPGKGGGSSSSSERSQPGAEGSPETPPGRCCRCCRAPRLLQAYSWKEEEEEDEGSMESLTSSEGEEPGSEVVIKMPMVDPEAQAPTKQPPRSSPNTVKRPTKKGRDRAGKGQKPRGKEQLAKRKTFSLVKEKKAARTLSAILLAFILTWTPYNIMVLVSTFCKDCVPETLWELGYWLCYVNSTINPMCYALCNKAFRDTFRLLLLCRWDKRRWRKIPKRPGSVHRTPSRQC
Assay: cell-based
Conditions: not given

Compound	IC50
CN(C)CCc1c[nH]c2cccc(OC(=O)OCc3ccccc3)c12 [B(II)]	24.5 µM

Same assay, conditions: CHRM1, GPCR, ANT (antagonist); read-out: IC50

Compound	IC50
CN(C)Cc1c[nH]c2cccc(O[Si](C)(C)C(C)(C)C)c12 [A(IV)]	25.8 µM
CC(C)OC(=O)OCOc1cccc2c1c(CCN(C)C)cn2COC(=O)OC(C)C [D(XIII)]	> 100 µM
CN(C)CCc1c[nH]c2cccc(OP(=O)(Oc3ccccc3)Oc3ccccc3)c12 [F(I)]	39.9 µM

Biological target: T3, AVPR1A
Assay: cell-based
Conditions: not given
Remark: another data set of the same source

Compound	EC50
CN(C)CCc1c[nH]c2cccc(OC(=O)OCc3ccccc3)c12 [B(II)]	> 100 µM
CN(C)CCc1c[nH]c2cccc(OP(=O)(Oc3ccccc3)Oc3ccccc3)c12 [F(I)]	> 100 µM

Same assay, conditions: AVPR1A, GPCR, AGN (agonist); read-out: EC50

Compound	EC50
CN(C)Cc1c[nH]c2cccc(O[Si](C)(C)C(C)(C)C)c12 [A(IV)]	> 100 µM
CC(C)OC(=O)OCOc1cccc2c1c(CCN(C)C)cn2COC(=O)OC(C)C [D(XIII)]	> 100 µM

Biological target: SERT (Homo sapiens, UniProt P31645)
Assay: cell-based
Conditions: not given

Chain of SERT (P31645 whole entry): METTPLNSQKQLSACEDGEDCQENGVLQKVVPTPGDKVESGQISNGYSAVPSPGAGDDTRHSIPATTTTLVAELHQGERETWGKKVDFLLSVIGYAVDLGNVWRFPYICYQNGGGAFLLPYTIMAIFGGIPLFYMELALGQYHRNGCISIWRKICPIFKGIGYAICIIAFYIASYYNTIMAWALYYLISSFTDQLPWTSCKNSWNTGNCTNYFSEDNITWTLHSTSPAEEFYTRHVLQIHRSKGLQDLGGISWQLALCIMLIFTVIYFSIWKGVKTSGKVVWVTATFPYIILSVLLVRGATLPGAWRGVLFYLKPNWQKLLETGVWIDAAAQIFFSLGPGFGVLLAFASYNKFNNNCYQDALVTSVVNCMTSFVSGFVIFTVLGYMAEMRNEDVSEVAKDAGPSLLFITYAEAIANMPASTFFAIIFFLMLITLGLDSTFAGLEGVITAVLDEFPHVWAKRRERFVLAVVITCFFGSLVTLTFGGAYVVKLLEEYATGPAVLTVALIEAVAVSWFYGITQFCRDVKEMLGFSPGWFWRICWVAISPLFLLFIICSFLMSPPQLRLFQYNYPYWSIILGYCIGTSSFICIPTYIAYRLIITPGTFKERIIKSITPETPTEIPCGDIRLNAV

Compound	IC50
CN(C)CCc1c[nH]c2cccc(OC(=O)OCc3ccccc3)c12 [B(II)]	10.4 µM

Same assay, conditions: SERT, transporter, BL (blocker); read-out: IC50

Compound	IC50
CN(C)Cc1c[nH]c2cccc(O[Si](C)(C)C(C)(C)C)c12 [A(IV)]	> 100 µM
CC(C)OC(=O)OCOc1cccc2c1c(CCN(C)C)cn2COC(=O)OC(C)C [D(XIII)]	> 100 µM
CN(C)CCc1c[nH]c2cccc(OP(=O)(Oc3ccccc3)Oc3ccccc3)c12 [F(I)]	39.2 µM

Biological target: T4, CHRM1
Assay: cell-based
Conditions: not given
Remark: another data set of the same source

Compound	EC50
CN(C)CCc1c[nH]c2cccc(OC(=O)OCc3ccccc3)c12 [B(II)]	> 100 µM
CN(C)CCc1c[nH]c2cccc(OP(=O)(Oc3ccccc3)Oc3ccccc3)c12 [F(I)]	> 100 µM

Same assay, conditions: CHRM1, GPCR, AGN (agonist); read-out: EC50

Compound	EC50
CN(C)Cc1c[nH]c2cccc(O[Si](C)(C)C(C)(C)C)c12 [A(IV)]	> 100 µM
CC(C)OC(=O)OCOc1cccc2c1c(CCN(C)C)cn2COC(=O)OC(C)C [D(XIII)]	> 100 µM

Biological target: NET (Homo sapiens, UniProt P23975)
Assay: cell-based
Conditions: not given

Chain of NET (P23975 whole entry): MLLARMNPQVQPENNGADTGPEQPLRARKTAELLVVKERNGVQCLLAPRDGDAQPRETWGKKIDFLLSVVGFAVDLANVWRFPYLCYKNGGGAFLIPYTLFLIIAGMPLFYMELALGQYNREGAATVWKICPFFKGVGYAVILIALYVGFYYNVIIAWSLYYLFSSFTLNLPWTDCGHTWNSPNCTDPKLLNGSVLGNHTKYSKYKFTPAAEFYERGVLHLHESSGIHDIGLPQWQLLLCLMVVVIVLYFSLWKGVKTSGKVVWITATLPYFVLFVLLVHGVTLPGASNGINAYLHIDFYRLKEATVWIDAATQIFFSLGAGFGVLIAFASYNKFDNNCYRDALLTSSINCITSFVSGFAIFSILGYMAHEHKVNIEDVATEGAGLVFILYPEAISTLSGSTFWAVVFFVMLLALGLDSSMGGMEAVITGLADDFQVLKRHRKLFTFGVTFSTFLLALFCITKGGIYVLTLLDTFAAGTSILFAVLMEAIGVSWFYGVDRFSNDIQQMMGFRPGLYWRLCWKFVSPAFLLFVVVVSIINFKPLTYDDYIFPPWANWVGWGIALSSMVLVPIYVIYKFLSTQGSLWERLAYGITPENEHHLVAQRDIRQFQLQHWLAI

Compound	IC50
CN(C)CCc1c[nH]c2cccc(OC(=O)OCc3ccccc3)c12 [B(II)]	26.5 µM
CN(C)CCc1c[nH]c2cccc(OP(=O)(Oc3ccccc3)Oc3ccccc3)c12 [F(I)]	41.8 µM

Same assay, conditions: NET, transporter, BL (blocker); read-out: IC50

Compound	IC50
CN(C)Cc1c[nH]c2cccc(O[Si](C)(C)C(C)(C)C)c12 [A(IV)]	> 100 µM
CC(C)OC(=O)OCOc1cccc2c1c(CCN(C)C)cn2COC(=O)OC(C)C [D(XIII)]	> 100 µM

Biological target: NMDAR (Homo sapiens, UniProt Q05586+Q13224)
Assay: cell-based
Conditions: not given

Chain of NMDAR (Q13224 27-1484, other chains not shown): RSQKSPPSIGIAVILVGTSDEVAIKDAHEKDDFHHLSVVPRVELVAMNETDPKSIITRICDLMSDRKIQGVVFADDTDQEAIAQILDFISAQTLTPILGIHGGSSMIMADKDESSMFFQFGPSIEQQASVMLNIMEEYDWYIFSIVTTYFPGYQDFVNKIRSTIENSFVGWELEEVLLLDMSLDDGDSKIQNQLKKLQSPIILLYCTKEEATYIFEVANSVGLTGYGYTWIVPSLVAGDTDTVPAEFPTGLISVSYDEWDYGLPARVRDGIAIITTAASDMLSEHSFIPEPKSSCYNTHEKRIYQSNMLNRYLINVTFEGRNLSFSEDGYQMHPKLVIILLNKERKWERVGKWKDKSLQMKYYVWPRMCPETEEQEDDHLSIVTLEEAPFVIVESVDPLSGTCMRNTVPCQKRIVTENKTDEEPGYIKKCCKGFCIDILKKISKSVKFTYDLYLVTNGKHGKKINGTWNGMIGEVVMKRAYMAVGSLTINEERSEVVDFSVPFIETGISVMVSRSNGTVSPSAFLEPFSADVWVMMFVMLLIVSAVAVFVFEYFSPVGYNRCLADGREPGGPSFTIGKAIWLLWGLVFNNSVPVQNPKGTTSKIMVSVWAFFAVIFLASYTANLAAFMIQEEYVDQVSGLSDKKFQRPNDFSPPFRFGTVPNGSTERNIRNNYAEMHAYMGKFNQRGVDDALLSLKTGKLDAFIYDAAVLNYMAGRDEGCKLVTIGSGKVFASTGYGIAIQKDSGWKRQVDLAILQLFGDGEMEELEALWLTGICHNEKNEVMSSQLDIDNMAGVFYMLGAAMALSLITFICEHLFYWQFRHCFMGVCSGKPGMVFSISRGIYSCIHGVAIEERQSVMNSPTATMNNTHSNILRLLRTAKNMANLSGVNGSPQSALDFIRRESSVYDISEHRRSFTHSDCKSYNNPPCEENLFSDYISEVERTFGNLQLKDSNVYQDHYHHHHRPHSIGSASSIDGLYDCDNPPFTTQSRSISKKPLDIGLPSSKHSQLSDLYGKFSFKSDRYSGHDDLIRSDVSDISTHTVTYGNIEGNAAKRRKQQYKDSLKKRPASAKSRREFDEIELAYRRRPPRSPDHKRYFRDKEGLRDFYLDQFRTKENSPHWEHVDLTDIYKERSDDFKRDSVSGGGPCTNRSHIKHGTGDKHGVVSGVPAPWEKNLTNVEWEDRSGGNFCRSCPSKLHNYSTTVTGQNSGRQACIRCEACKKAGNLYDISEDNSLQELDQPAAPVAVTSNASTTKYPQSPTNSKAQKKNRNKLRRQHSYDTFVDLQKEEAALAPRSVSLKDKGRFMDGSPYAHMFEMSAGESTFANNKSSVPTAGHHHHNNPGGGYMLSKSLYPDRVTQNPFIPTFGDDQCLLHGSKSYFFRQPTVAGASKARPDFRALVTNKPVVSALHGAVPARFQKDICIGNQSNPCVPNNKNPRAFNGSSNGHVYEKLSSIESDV

Compound	IC50
CN(C)CCc1c[nH]c2cccc(OC(=O)OCc3ccccc3)c12 [B(II)]	16 µM
CN(C)CCc1c[nH]c2cccc(OP(=O)(Oc3ccccc3)Oc3ccccc3)c12 [F(I)]	> 100 µM

Same assay, conditions: NMDAR, ion channel, BL (blocker); read-out: IC50

Compound	IC50
CN(C)Cc1c[nH]c2cccc(O[Si](C)(C)C(C)(C)C)c12 [A(IV)]	12.1 µM
CC(C)OC(=O)OCOc1cccc2c1c(CCN(C)C)cn2COC(=O)OC(C)C [D(XIII)]	> 100 µM

Biological target: T5, MAO-A (Homo sapiens, UniProt P21397)
T5 construct: purchased Sigma
T5 sequence (P21397 1-527): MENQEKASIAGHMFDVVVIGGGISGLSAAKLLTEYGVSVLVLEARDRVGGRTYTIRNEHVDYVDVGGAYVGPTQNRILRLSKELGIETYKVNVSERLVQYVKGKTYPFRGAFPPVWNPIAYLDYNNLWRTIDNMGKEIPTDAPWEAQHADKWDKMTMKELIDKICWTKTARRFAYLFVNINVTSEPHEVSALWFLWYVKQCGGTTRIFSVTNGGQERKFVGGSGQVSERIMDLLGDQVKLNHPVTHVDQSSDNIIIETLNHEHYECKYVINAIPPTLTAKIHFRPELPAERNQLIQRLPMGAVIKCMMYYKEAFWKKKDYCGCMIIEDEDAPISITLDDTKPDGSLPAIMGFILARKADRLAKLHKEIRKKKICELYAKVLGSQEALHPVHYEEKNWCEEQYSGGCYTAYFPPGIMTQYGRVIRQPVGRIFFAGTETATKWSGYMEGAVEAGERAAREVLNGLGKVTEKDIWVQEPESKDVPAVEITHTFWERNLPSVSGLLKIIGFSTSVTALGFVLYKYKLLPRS
Assay: biochemical
Conditions: not given

Compound	IC50
CN(C)CCc1c[nH]c2cccc(OC(=O)OCc3ccccc3)c12 [B(II)]	21.9 µM
CN(C)CCc1c[nH]c2cccc(OP(=O)(Oc3ccccc3)Oc3ccccc3)c12 [F(I)]	50.9 µM

Same assay, conditions: MAO-A, enzyme, IN (inhibitor); read-out: IC50

Compound	IC50
CN(C)Cc1c[nH]c2cccc(O[Si](C)(C)C(C)(C)C)c12 [A(IV)]	54.6 µM
CC(C)OC(=O)OCOc1cccc2c1c(CCN(C)C)cn2COC(=O)OC(C)C [D(XIII)]	> 100 µM

Biological target: T6, CHRM2 (Homo sapiens, UniProt P08172)
T6 sequence (P08172 1-466): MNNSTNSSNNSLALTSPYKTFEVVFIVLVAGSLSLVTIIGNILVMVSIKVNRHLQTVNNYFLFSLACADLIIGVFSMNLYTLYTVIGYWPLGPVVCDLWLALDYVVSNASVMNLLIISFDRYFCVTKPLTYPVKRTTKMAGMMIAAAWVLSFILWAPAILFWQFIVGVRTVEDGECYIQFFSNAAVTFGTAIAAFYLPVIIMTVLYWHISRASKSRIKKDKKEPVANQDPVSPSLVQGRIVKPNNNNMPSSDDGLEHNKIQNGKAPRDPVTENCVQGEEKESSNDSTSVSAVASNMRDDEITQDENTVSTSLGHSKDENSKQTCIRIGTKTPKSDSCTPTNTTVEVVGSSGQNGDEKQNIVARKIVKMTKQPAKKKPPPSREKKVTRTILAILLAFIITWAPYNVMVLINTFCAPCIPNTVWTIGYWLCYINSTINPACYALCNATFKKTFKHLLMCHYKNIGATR
Assay: cell-based
Conditions: not given

Compound	EC50
CN(C)CCc1c[nH]c2cccc(OC(=O)OCc3ccccc3)c12 [B(II)]	> 100 µM
CN(C)CCc1c[nH]c2cccc(OP(=O)(Oc3ccccc3)Oc3ccccc3)c12 [F(I)]	> 100 µM

Same assay, conditions: CHRM2, GPCR, AGN (agonist); read-out: EC50

Compound	EC50
CN(C)Cc1c[nH]c2cccc(O[Si](C)(C)C(C)(C)C)c12 [A(IV)]	> 100 µM
CC(C)OC(=O)OCOc1cccc2c1c(CCN(C)C)cn2COC(=O)OC(C)C [D(XIII)]	> 100 µM
